Data reported in PMC3724992, “Identification of new HLA-A*0201-restricted cytotoxic T lymphocyte epitopes from neuritin” (Journal of Neuro-Oncology, 2013).

What was measured:
[1] = target: T1, HLA-A*0201 molecules on T2 cells (Homo sapiens, UniProt P04439, D140Y/D185E/D98H/E176V/E277Q/G131W/G231S/I119V/I121R/I166T/I218V/L300P/L318F/N151K/N90K/P208A/P217A/Q86G/Q94H/R138H/R169H/T345S); experiment: Peptide-binding assay: up-regulation of HLA-A*0201 on T2 cells; conditions: for FI (fluorescence index): 1 × 10^6 T2 cells, 50 μM peptide, serum-free RPMI 1640, β2-microglobulin 3 μg/ml, 16 h, 37 °C, flow cytometry with anti-HLA-A2 Ab (BB7.2) and FITC secondary, mean of triplicate; for affinity to HLA-A2.1 (in words): T2 cells, authors' grading of the Table 2 data
T1 construct: endogenous in cells; host or cells: T2 cells
Experimental: To determine whether the candidate epitopes can bind to HLA-A*0201 molecules, up-regulation of peptide-induced HLA-A*0201 molecules on T2 cells was examined. Briefly, according to previous reference, 1 × 10^6 T2 cells were incubated with 50 μM of the synthesized peptides in serum-free RPMI 1640 medium supplemented with β2-microglobulin (Sigma) at a concentration of 3 μg/ml for 16 h at 37 °C, 5 % CO2 [18]. Expression of HLA-A*0201 on T2 cells was then determined with the FACS Calibur flow cytometer (Becton–Dickinson, USA), by staining with primary anti-HLA-A2 Ab derived from BB7.2 and FITC-labeled goat-antimouse IgG (BD Biosciences Pharmingen, USA) secondary antibody. The data were analyzed using Cell Quest software (Becton–Dickinson, USA). The Fluorescence index (FI) was calculated as follows: FI = (mean FITC fluorescence with the given peptide − mean FITC fluorescence without peptide)/(mean FITC fluorescence without peptide). Samples were measured in triplicate and then mean FI was calculated. An octapeptide mHpa (519–526) ([…]) derived from mouse Hpa was served negative control.

IFN-γ-producing T cells = experiment: IFN-γ ELISPOT assay of peptide-induced effectors; type: cell-based; conditions: human HLA-A2+ donor T cells restimulated every 7 days with DCs pulsed with 100 μg/ml peptide; assessed on day 23; triplicate; compared to negative peptide control, P < 0.05
Experimental: (§1) PBMCs were isolated from healthy HLA-A2+ donors by Ficoll–Hypaque density gradient centrifugation (TBC company, Tianjing, China) and then seeded into culture flasks in RPMI-1640 medium supplemented with penicillin (100 U/ml), streptomycin (100 μg/ml), and 10 % FBS. After monocytes adhered (incubation for 2 h), the nonadherent cells were collected and frozen in freeze medium (60 % RPMI-1640 and 30 % FBS, 10 % DMSO) for later use in CTL assays. The adherent cells were cultured for 5 days in RPMI-1640 containing 1,000 U/ml of granulocyte–macrophage colony-stimulating factor (R&D Systems, Inc., Minneapolis, MN) and interleukin-4 (IL-4; R&D Systems, Inc.) and were the cultured for an additional 2 days in the presence of 1,000 U/ml of tumor necrosis factor α (R&D Systems, Inc.) to induce final maturation. After 7 days of culture, the mature DCs were harvested and analyzed for DC typical phenotypes by FACS analysis.
(§2) Briefly, DCs were loaded with different peptides at a final concentration of 100 μg/ml for 4 h and were then irradiated with 20 Gy, which prevented all outgrowths in the control cultures. Autologous T cells were restimulated every 7 days with the previously mentioned peptide-pulsed DCs to generate peptide-specific CTLs. Recombinant interleukin 2 (IL-2) at a concentration of 20 U/ml was added to the culture medium on day 3 after every stimulation. Cytotoxic T lymphocyte activity was then assessed on day 23 by a 4 h ^51Cr release assay. Effectors generated from negative peptide-pulsed DCs were used as controls.
IFN-γ secretion of effectors was assayed by enzyme-linked immunospot (ELISPOT). Multiscreen 96-well assay plates (Dakewe, Shenzhen, China) were precoated overnight at 4 °C with anti-IFN-γ antibody according to the manufacturer’s instruction. After washing with PBST (PBS-0.05 % Tween 20), plates were blocked for 1 h at 37 °C with PBS/1 % BSA. […] After being air-dried, the number of spots in each well was counted using the Bioreader 4000 PRO-X (Bio-Sys; Germany).
Fig. 2 Specific IFN-γ by ELISPOT assay. […] The IFN-γ secretion was then assessed on day 23. […]

[2] = target: T2, HLA-A*0201/peptide complexes on T2 cells (Homo sapiens, UniProt P04439, D140Y/D185E/D98H/E176V/E277Q/G131W/G231S/I119V/I121R/I166T/I218V/L300P/L318F/N151K/N90K/P208A/P217A/Q86G/Q94H/R138H/R169H/T345S); experiment: Peptide/HLA-A*0201 complex stability on T2 cells; type: binding; conditions: authors' grading of the Table 2 data
T2 construct: Expression of HLA-A*0201 on T2 cells was then determined; endogenous in cells; host or cells: T2 cells
Experimental: Briefly, T2 cells (10^6/ml) were incubated overnight with the candidate peptides, respectively, at a concentration of 20 μg/ml in serum-free medium supplemented with β2-microglobulin at a concentration of 3 μg/ml at 37 °C.
Thereafter, they were washed four times to remove free peptides, incubated with Brefeldin A (10 µg/ml) for 1 h to block cell surface expression of newly synthesized HLA-A2.1 molecules, washed and incubated at 37 °C for 0, 2, 4, 6, or 8 h. Subsequently, cells were stained with anti-HLA-A2 antibody from BB7.2 cells to evaluate the HLA-A2.1 molecule expression. For each time point, peptide induced HLA-A*0201 expression was evaluated by the formula mentioned above. Dissociation complex50 (DC50) was defined as the time required for the loss of 50 % of the HLA-A*0201/peptide complexes stabilized at time = 0.

[3] = test system: target cells expressing neuritin and HLA-A2.1; experiment: 4-h 51Cr release cytotoxicity assay of CTLs induced in vitro; type: cell-based, human; conditions: PBMCs from four HLA-A2.1+ donors stimulated with peptide-pulsed DCs, E/T 25:1, 50:1, 100:1, triplicate
Experimental: as §1, §2
To evaluate the levels of CTL activity, a standard 4-h ^51Cr release assay was used. Briefly, target cells were incubated with ^51Cr (100 μCi per 1 × 10^6 cells) for 2 h in a 37 °C water bath. […] After a 4-h incubation, the supernatants were harvested, and the amount of released ^51Cr was measured with a gamma counter. The percent specific lysis was calculated according to the following formula: […]
Fig. 3 Specific lysis of CTLs against target cells. […] After a 4-h incubation, the supernatants were harvested, and the amount of released ^51Cr was measured with a gamma counter. […]

[4] = test system: neuritin and HLA-A2.1 positive cells; experiment: In vivo immunogenicity: CTLs from immunized mice, 51Cr release assay; conditions: HLA-A*0201/Kb mice, 100 μg peptide in IFA, boosted once a week for three times, splenocytes 7 days after immunization as effectors
Experimental: To evaluate the levels of CTL activity, a standard 4-h ^51Cr release assay was used. Briefly, target cells were incubated with ^51Cr (100 μCi per 1 × 10^6 cells) for 2 h in a 37 °C water bath. After incubation with ^51Cr, target cells were washed three times with PBS, resuspended in RPMI-1640 medium, and mixed with effector cells at a 25:1, 50:1 or 100:1 of effector to target (E/T) ratio. Assays were performed in triplicate for each sample at each ratio in a 96-well round-bottomed plate. After a 4-h incubation, the supernatants were harvested, and the amount of released ^51Cr was measured with a gamma counter. The percent specific lysis was calculated according to the following formula:
Specific lysis = (experimental release − spontaneous release)/(maximal release − spontaneous release) × 100 %
(§3) HLA-A*0201/Kb mice were immunized with 100 μg of various peptides prepared in incomplete Freund’s adjuvant (IFA) and boosted once a week for three times. As a control, mice were injected with an IFA emulsion without peptide. 7 days after immunization, splenocytes from injected animals were cultured and used as effector cells.
as §3, with “Fig. 5 In vivo induction of epitope-specific CTLs in vivo. HLA-A*0201/Kb” for “HLA-A*0201/Kb”, “cells. The cytotoxic activities of CTLs were determined against target cells at various E/T ratios using ^51Cr release assay. […] Compared with controls, P < 0.05” for “cells.”

Sequence | FI (fluorescence index) [1] | affinity to HLA-A2.1 (in words) [1] | stability to HLA-A2.1 (in words) [2] | peptide-specific T cell response (frequency of IFN-γ-producing T cells) (IFN-γ-producing T cells) | induction of neuritin-specific CTLs that lyse target cells [3] | lysis of target cells by CTLs primed in immunized mice [4]
FSYGFFVI [mHpa (519–526), reference compound] | 0.38 |  |  |  |  | 
VLLVSLSAA [neuritin127–135] | 0.68 | low | low |  |  | 

Now from value to sequence, other results behind:

FI (fluorescence index) [1] | affinity to HLA-A2.1 (in words) [1] | stability to HLA-A2.1 (in words) [2] | Sequence | peptide-specific T cell response (frequency of IFN-γ-producing T cells) (IFN-γ-producing T cells) | induction of neuritin-specific CTLs that lyse target cells [3] | lysis of target cells by CTLs primed in immunized mice [4]
1.68 | high | high | ILAVQIAYL [neuritin13–21] | strong peptide-specific T cell response | able to elicit neuritin-specific CTLs | could lyse neuritin and HLA-A2.1 positive cells with high efficiency
1.07 | moderate |  | KLNGRYISL [neuritin4–12] | strong peptide-specific T cell response | able to elicit neuritin-specific CTLs | could lyse neuritin and HLA-A2.1 positive cells with high efficiency
1.24 | moderate |  | LLPAFPVLL [neuritin121–129] | strong peptide-specific T cell response | able to elicit neuritin-specific CTLs | could lyse neuritin and HLA-A2.1 positive cells with high efficiency
